Data set [1] is described as follows: Solubility in neutral water (Test Example 1). The class given is physicochemical. The note with it: 100 g of neutral water, water temperature 20° C. On the procedure: (§1) Solubility of each of the photosensitive compounds produced in Comparative Synthesis Examples 1 to 2 and Examples 2 to 5 (comparative photosensitive materials H and I, and photosensitive materials C to F) in 100 g of neutral water (water temperature: 20° C.) was assessed. The solubility in an aqueous phosphoric acid solution (liquid temperature: 20° C.) obtained by mixing phosphoric acid (4 g) and water (100 g), was also determined.

A short description of data set [2]: Solubility in aqueous phosphoric acid solution (Test Example 1). The class given is physicochemical. The note with it: for Solubility in aq. phosphoric acid solution (104 g): liquid temperature 20° C., amount dissolved (complete dissolution where stated); for Solubility in aqueous phosphoric acid solution (in words): summary of Table 1. Here is the method:
as §1

Setting [3] is: phosphoric acid (4 g) and water (100 g).

The results in this text go back to US9223210B2, “Photosensitive compound, photosensitive resin, and photosensitive composition” (TOYO GOSEI CO., LTD., priority 2012, dated 2015).

In the case of `C=CCN(CC=C)Cc1ccc(C(=O)NC(=Cc2ccc(N=[N+]=[N-])cc2)C(=O)NCCCC(OC)OC)cc1` [Photosensitive material E, 3-(4-azidophenyl)-N-(4,4′-dimethoxybutyl)-2-(4-diallylaminomethylphenyl)carbonylamino-prop-2-enamide], the “Solubility in water (100 g)” value in data set [1] is on record as “≦0.1 g”. The “Solubility in aq. phosphoric acid solution (104 g)” value in data set [2] (setting [3]) is on record as 5 g (complete.
For `[N-]=[N+]=Nc1ccc(C=C(NC(=O)c2ccc(CN3CCOCC3)cc2)C(=O)NCCCC=O)cc1` [Photosensitive material F, 3-(4-azidophenyl)-N-(3-formylpropyl)-2-(4-morpholinomethylphenyl)carbonylamino-prop-2-enamide] the same measures were “≦0.1 g” and 5 g (complete.
As for `COC(CCCNC(=O)C(=Cc1ccc(N=[N+]=[N-])cc1)NC(=O)c1ccccc1)OC` [Comp. Photosensitive material H, 3-(4-azidophenyl)-N-(4,4′-dimethoxybutyl)-2-phenylcarbonylamino-prop-2-enamide], the “Solubility in water (100 g)” value in data set [1] was “≦0.1 g”. The “Solubility in aq. phosphoric acid solution (104 g)” value in data set [2] (setting [3]) is “≦0.1 g”. For the same compound, the “Solubility in aqueous phosphoric acid solution (in words)” value in data set [2] is reported as “very low solubility”.
On to `COC(CCCNC(=O)C(=Cc1cccnc1)NC(=O)C=Cc1ccc(N=[N+]=[N-])cc1)OC` [Comp. Photosensitive material I, 2-(3-(4-azidophenyl)prop-2-enoylamino)-N-(4,4-dimethoxybutyl)-3-(3-pyridyl)prop-2-enamide], for which, in data set [1], the “Solubility in water (100 g)” value is “≦0.1 g”. Besides, the “Solubility in aq. phosphoric acid solution (104 g), partial dissolution” value in data set [2] (phosphoric acid (4 g) and water (100 g), 20° C., amount giving only partial dissolution) is reported as 0.4 g (partial. In data set [2] (setting [3]), the “Solubility in aq. phosphoric acid solution (104 g)” value is 0.2 g (complete. Moreover, in data set [2], the “Solubility in aqueous phosphoric acid solution (in words)” value is listed as “lower than that of photosensitive materials C to F”.
For “3-(4-azidophenyl)-N-(4,4′-dimethoxybutyl)-2-(4-imidazolylmethylphenyl)carbonylamino-prop-2-enamide [Photosensitive material D]”, the “Solubility in water (100 g)” value in data set [1] is “≦0.1 g”. Further, the “Solubility in aq. phosphoric acid solution (104 g)” value in data set [2] (setting [3]) was 5 g (complete.
For the compound `COC(CCCNC(=O)C(=Cc1ccc(N=[N+]=[N-])cc1)NC(=O)c1ccc(CN2CCOCC2)cc1)OC` [Photosensitive material C, 3-(4-azidophenyl)-N-(4,4′-dimethoxybutyl)-2-(4-morpholinomethylphenyl)carbonylamino-prop-2-enamide], the “Solubility in water (100 g)” value in data set [1] is “≦0.1 g”. The “Solubility in aq. phosphoric acid solution (104 g)” value in data set [2] (setting [3]) is listed as 5 g (complete.
